Assay results reported in BindingDB's records for doi:10.1021/jm00362a020 (1983).

Target: Glycolate oxidase (Sus scrofa)
Experiment: In vitro inhibition of porcine Glycolate oxidase

Row | Structure (SMILES) | IC50 [µM]
1 | O=C(O)C(=O)CC(=O)c1ccc(-c2ccc(SCC3(O)COc4ccccc4OC3)cc2)cc1 | 0.06
2 | O=C(O)C(=O)CC(=O)c1ccc(-n2c(-c3ccccc3)cc3ccccc32)cc1 | 0.18
3 | CCCCCCCCCc1ccc(C(=O)CC(=O)C(=O)O)cc1 | 0.6
4 | O=C(O)C(=O)CC(=O)c1ccc(-c2ccc(SCc3ccccc3)cc2)cc1 | 0.4
5 | O=C(O)C(=O)CC(=O)c1ccc(-c2ccc(Br)cc2)cc1 | 0.063
6 | CC1=C(C=CC(=O)CC(=O)C(=O)O)C(C)(C)CCC1 | 1.4
7 | O=C(C=Cc1ccccc1)CC(=O)C(=O)O | 19
8 | CSc1ccc(-c2ccc(C(=O)CC(=O)C(=O)O)cc2)cc1 | 0.16
9 | O=C(O)C(=O)CC(=O)c1ccc(C2CCCc3ccccc32)cc1 (centres undefined) | 2.1
